# From doi:10.1101/2023.03.24.534094v2 (biorxiv, 2023)
# Like-named read-outs stand apart in the source and are kept apart here.
# What was measured:
# Test in all cases: biochemical
# p38a = p38a (Homo sapiens, UniProt Q16539)
# MARK3 = MARK3 (Homo sapiens, UniProt P27448)
# AurA = target: T1, AurA (Homo sapiens, UniProt O14965)
# T1 sequence (O14965 1-403): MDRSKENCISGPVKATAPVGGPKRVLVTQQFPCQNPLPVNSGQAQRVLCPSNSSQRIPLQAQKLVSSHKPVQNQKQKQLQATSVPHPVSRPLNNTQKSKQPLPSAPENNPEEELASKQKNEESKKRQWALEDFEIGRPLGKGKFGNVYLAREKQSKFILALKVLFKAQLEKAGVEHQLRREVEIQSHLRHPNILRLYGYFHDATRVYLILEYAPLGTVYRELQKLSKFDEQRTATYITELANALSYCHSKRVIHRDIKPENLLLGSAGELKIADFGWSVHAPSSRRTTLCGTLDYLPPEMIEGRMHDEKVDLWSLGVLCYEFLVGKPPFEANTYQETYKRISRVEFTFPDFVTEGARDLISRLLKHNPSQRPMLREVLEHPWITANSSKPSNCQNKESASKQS
# MER = target: T2, MER (Homo sapiens, UniProt Q12866)
# T2 sequence (Q12866 1-999): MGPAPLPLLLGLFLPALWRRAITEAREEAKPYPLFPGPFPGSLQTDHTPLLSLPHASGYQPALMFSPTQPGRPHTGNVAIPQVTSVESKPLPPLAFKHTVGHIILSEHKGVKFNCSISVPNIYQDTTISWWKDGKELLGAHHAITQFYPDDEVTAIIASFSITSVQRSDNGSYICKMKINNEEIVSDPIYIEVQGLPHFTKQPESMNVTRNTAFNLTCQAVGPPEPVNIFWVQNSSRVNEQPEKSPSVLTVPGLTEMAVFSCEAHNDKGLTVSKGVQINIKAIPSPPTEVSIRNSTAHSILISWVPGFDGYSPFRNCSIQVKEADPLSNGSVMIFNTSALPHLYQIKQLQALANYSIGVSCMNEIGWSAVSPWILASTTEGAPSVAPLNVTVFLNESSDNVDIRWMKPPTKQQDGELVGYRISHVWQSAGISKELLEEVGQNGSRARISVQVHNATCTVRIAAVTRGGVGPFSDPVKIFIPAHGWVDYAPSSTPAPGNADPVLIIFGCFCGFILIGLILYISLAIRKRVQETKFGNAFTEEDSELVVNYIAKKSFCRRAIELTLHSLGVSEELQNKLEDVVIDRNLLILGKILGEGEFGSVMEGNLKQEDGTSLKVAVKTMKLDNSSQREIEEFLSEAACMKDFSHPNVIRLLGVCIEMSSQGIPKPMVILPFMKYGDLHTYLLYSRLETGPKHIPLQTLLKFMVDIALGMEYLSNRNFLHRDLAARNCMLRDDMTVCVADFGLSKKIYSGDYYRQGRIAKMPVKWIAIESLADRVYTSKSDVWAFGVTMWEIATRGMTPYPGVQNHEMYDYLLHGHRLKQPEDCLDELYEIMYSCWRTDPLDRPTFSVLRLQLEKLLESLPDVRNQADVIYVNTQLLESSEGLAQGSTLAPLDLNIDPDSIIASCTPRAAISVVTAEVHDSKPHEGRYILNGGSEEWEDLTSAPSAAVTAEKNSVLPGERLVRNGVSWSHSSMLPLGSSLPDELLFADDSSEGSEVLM
# CK1d = CK1d (Homo sapiens, UniProt P48730)
# MARK4 = target: T3, MARK4 (Homo sapiens, UniProt Q96L34)
# T3 sequence (Q96L34 1-752): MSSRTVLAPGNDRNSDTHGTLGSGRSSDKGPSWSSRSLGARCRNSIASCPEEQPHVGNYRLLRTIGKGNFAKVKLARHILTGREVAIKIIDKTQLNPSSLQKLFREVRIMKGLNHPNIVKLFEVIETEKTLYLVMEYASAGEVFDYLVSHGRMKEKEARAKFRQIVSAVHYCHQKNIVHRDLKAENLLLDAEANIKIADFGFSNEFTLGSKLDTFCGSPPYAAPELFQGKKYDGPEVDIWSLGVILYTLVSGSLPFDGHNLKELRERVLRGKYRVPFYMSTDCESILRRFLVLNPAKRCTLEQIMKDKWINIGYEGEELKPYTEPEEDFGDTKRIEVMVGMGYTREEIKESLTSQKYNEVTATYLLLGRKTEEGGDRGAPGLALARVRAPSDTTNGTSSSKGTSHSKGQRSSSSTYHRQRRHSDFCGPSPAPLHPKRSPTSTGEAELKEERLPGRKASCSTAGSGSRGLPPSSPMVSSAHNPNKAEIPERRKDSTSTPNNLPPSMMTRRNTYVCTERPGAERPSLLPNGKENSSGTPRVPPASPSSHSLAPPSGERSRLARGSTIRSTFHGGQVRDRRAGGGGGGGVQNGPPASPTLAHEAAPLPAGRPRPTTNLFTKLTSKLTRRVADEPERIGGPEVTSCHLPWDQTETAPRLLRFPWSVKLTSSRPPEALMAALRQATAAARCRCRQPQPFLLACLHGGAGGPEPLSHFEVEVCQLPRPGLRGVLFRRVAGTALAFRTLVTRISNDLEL
# MAP2K7 = target: T4, MAP2K7 (Homo sapiens, UniProt O14733)
# T4 sequence (O14733 1-419): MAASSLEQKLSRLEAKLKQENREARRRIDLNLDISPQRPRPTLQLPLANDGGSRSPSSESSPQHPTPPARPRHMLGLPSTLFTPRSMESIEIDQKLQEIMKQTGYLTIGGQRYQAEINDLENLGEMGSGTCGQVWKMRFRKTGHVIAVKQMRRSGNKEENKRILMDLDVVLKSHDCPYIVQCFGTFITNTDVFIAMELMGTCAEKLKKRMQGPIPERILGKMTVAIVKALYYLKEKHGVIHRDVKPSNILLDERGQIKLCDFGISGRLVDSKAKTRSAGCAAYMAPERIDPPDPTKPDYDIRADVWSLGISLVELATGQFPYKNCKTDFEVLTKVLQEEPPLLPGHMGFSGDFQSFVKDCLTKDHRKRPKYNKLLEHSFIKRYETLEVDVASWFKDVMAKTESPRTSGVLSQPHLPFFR
# p38a, sequence (Q16539 whole entry): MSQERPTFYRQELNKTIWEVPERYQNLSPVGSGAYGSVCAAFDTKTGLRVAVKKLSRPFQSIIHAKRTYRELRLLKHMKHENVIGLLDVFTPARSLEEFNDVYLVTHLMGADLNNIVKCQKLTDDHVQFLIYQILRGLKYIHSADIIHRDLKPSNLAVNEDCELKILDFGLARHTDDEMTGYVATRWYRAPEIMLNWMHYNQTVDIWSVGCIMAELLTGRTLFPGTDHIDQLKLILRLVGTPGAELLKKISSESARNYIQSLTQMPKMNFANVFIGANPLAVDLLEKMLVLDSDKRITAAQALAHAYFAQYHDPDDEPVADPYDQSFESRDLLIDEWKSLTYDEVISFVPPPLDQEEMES
# MARK3, sequence (P27448 whole entry): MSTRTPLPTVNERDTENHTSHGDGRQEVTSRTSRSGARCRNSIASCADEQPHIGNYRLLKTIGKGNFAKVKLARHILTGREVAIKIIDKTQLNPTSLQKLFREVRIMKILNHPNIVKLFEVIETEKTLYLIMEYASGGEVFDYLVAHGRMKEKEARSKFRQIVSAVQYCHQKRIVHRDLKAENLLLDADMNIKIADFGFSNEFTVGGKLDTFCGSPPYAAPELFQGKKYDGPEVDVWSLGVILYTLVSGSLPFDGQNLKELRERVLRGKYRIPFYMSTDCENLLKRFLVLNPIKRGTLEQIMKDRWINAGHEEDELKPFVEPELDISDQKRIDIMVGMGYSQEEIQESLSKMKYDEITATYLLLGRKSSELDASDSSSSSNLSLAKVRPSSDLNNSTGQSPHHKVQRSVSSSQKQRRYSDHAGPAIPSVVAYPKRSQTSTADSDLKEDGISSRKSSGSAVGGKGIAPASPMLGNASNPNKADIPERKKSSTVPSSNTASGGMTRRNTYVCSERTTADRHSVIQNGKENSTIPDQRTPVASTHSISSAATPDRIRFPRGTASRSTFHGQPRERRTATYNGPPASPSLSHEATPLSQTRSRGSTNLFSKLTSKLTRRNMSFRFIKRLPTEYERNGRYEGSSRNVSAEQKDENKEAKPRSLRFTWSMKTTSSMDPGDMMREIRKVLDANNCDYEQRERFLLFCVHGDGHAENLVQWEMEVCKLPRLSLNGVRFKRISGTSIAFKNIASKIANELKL
# CK1d, sequence (P48730 whole entry): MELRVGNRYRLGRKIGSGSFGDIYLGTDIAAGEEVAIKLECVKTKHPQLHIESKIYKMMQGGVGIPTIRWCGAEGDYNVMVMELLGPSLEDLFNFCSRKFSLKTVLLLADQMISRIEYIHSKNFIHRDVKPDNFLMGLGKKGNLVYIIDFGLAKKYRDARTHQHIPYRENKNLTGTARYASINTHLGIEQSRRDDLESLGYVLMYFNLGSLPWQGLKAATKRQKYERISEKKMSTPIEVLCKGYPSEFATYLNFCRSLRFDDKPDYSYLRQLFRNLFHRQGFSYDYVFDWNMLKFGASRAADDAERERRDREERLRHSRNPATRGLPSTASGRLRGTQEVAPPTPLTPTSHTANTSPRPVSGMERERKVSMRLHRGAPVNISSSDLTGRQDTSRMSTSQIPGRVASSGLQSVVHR
structure (smiles),measurement,setting,value
"CNc1ncc2cc(-c3ccc(-c4cccc(C)n4)cc3Cl)c(=O)n(CC3OCC(N)CO3)c2n1 (stereo not drawn) [compound 2, G-5555]",dTm G-5555 (2),"p38a; 10 µM, binder",1.4 °C
same,dTm G-5555 (2),"MARK3; 10 µM, binder",8.8 °C
same,dTm G-5555 (2),"AurA; 10 µM, binder",8.5 °C
same,dTm G-5555 (2),"MER; 10 µM, binder",0.8 °C
same,dTm G-5555 (2),"CK1d; 10 µM, binder",0.4 °C
same,dTm G-5555 (2),"MARK4; 10 µM, binder",7.7 °C
"CNc1ncc2cc(-c3ccccc3Cl)c(=O)n(CCCCN)c2n1 [compound 4, 8-(4-Aminobutyl)-6-(2-chlorophenyl)-2-(methylamino)pyrido[2,3-d]pyrimidin-7(8H)-one]",ΔTm at 10 µM,p38a; read-out: dTm MR21 (4),8.8 °C
same,ΔTm at 10 µM,MARK3; read-out: dTm MR21 (4),5.3 °C
same,ΔTm at 10 µM,MER; read-out: dTm MR21 (4),2.8 °C
same,ΔTm at 10 µM,MAP2K7; read-out: dTm MR21 (4),1.1 °C
same,ΔTm at 10 µM,CK1d; read-out: dTm MR21 (4),2.9 °C
same,ΔTm at 10 µM,MARK4; read-out: dTm MR21 (4),3 °C
"CNc1ncc2cc(-c3cc(F)ccc3F)c(=O)n(CCCCN)c2n1 [compound 5, 8-(4-Aminobutyl)-6-(2,5-difluorophenyl)-2-(methylamino)pyrido[2,3-d]pyrimidin-7(8H)-one]",ΔTm at 10 µM,p38a; read-out: dTm MR22 (5),-0.6 °C
same,ΔTm at 10 µM,MARK3; read-out: dTm MR22 (5),1.1 °C
same,ΔTm at 10 µM,AurA; read-out: dTm MR22 (5),-3 °C
same,ΔTm at 10 µM,MER; read-out: dTm MR22 (5),-0.8 °C
same,ΔTm at 10 µM,MAP2K7; read-out: dTm MR22 (5),-0.9 °C
same,ΔTm at 10 µM,CK1d; read-out: dTm MR22 (5),1.3 °C
same,ΔTm at 10 µM,MARK4; read-out: dTm MR22 (5),0 °C
"CNc1ncc2cc(-c3cc(Br)ccc3Cl)c(=O)n(CCCCN)c2n1 [compound 6, 8-(4-Aminobutyl)-6-(5-bromo-2-chlorophenyl)-2-(methylamino)pyrido[2,3-d]pyrimidin-7(8H)-one]",ΔTm at 10 µM,p38a; read-out: dTm 6,5.6 °C
same,ΔTm at 10 µM,MARK3; read-out: dTm 6,3.5 °C
same,ΔTm at 10 µM,AurA; read-out: dTm 6,1.9 °C
same,ΔTm at 10 µM,MER; read-out: dTm 6,0.1 °C
same,ΔTm at 10 µM,MAP2K7; read-out: dTm 6,0.9 °C
same,ΔTm at 10 µM,CK1d; read-out: dTm 6,0.9 °C
same,ΔTm at 10 µM,MARK4; read-out: dTm 6,1.7 °C
"CNc1ncc2cc(-c3cc(Br)ccc3Cl)c(=O)n(C[C@H]3OC[C@H](N)CO3)c2n1 [compound 7, 8-(((2r,5r)-5-Amino-1,3-dioxan-2-yl)methyl)-6-(5-bromo-2-chlorophenyl)-2-(methylamino)pyrido[2,3-d]pyrimidin-7(8H)-one]",ΔTm at 10 µM,p38a; read-out: dTm 7,5.3 °C
same,ΔTm at 10 µM,MARK3; read-out: dTm 7,1.7 °C
same,ΔTm at 10 µM,AurA; read-out: dTm 7,1.4 °C
same,ΔTm at 10 µM,MER; read-out: dTm 7,0.2 °C
same,ΔTm at 10 µM,MAP2K7; read-out: dTm 7,0.1 °C
same,ΔTm at 10 µM,CK1d; read-out: dTm 7,-0.1 °C
same,ΔTm at 10 µM,MARK4; read-out: dTm 7,0.8 °C
